# Assay results taken from US5268308A, “Immunoassay for pyridostigmine” (priority 1989, dated 1993).
# Biological target: Pyridostigmine Antibody
# Assay: Cross-reactivity with pyridostigmine antibody in RIA (competition with labeled pyridostigmine)
# Format: binding, rabbit (male New Zealand white)
# Conditions: labeled pyridostigmine 5000 DPM; maximum tested 500 ng
# Procedure: Antibodies to the pyridostigmine-BSA immunogen were produced by injecting male New Zealand white rabbits. Prior to injection, the immunogen was emulsified with an equal volume of complete Freund's adjuvant, purchased from Difco Laboratories. The initial immunization consisted of 0.8 mg of protein injected intracutaneously into the back of the rabbits. Booster injections containing 0.8 mg of immunogen and incomplete Freund's adjuvant were administered every one or two months for the next seven months. Blood was collected one week after each booster injection from the central ear vein. The blood was allowed to clot at room temperature and then centrifuged at 1500×g for 15 minutes. The separated serum was stored frozen at -20° C. until assayed for the presence of pyridostigmine antibody. […] FIG. 1 is the antibody dilution curve for pyridostigmine.
# In the assay procedure tritiated pyridostigmine having specificity of […] was used as tracer. The dilution of tracer, antisera and pyridostigmine standards were made using 0.01 M phosphate buffer containing 150 mM sodium chloride with a pH of 7.4.. […] Both standard and sample tubes were always analyzed in duplicate. The assay was carried out according to the protocol shown in. Table 1 with the reagents were added to the assay tubes in the order shown in.
# According to the protocol for the RIA of the present invention, after the addition of antisera, the contents of the tubes were mixed and incubated for 3 hours at 4° C. The antigen which bound to the antibody was separated by adding 100% saturated ammonium sulfate and centrifuging at 2500×g for 15 minutes. After aspiration of the supernatant, the precipitate was washed one time with 50% saturated ammonium sulfate; then the mixture was centrifuged and the supernatent removed. The precipitate was dissolved in 1.0 ml of distilled water, and the solution was transferred to a scintillation vial containing 10.0 ml of acquasol.
# Cross-reactivity of various compounds with pyridostigmine antibody was determined in the RIA. […] Each compound was tested for cross-reactivity with the antibody. The maximum concentration of each compound tested was 500 ng.
compound,measurement,value
CN(C)C(=O)Oc1ccc[n+](C)c1 [Pyridostigmine],IC 50 (50% inhibition of binding of 3H-pyridostigmine to the antibody),4 ng
